Patent US11786839B2, “Eutectic extract formation and purification” (Givaudan France Naturals SAS, priority 2018, dated 2023)

How the values were obtained:
[1] = Oxygen radical absorbance capacity (ORAC) method
Protocol: Test of Physico-Chemical Efficacy as Antioxidant—Oxygen Radical Absorbance Capacity (ORAC) Method
Phosphate buffer solutions (pH 7.2) containing the desired concentrations of eutectic extracts were prepared. Fifty millilitres of each solution were transferred by multi-channel pipette into a Fluotrac 96-well microplate (Greiner).
To improve the repeatability, the microplate was pre-heated at 37° C. under orbital stirring at 1,200 rpm in a temperature-controlled thermoshaker (PHMT series, Grant Instruments Ltd, Shepreth, England) for 20 minutes.
50 μL of AAPH solution in freshly prepared phosphate buffer solution was then added using a multi-channel pipette.
A drop in fluorescence to 515 nm (λex: 490 nm) was immediately recorded. Measurements were then taken every minute for 2 hours at 37±0.1° C. with 5 seconds of stirring before each measurement using a microplate reader.

[2] = Conjugated autoxidizable triene (CAT) assay; assay type: biochemical
Protocol: Antioxidant solutions were prepared as follows: a methanol solution of eutectic extract or Trolox (reference) was prepared at the desired concentration. […] Various volumes of this solution (25, 50, 75, and 100 μL) were then added to 24.9 mL of phosphate buffer solution (PBS), pH 7.2, and then filled to 25.0 mL with pure methanol (75, 50, 25, and 0 μL, respectively). In this way, all buffered solutions of eutectic extract contained the same methanol volume (100 μL), which minimizes any possible bias among samples. Samples of these solutions (50 μL/well) were transferred using a multichannel micropipet into UV-Star 96-well microplate (Greiner, Frickenhausen, Germany) (absorbance at 273 nm=0.03). The microplate was then prewarmed and stirred in a thermostated shaker (PHMT Grant Instruments, […], England) at 37° C. for 5 min at 1,200 rpm. […] Each well was then filled with 100 μL of this tung oil-in-PBS emulsion. To improve repeatability, the microplate was then immediately pre-warmed and shaken, sheltered from light, in a thermostated shaker (PHMT Grant Instruments) at 37° C. for 1 min at 1,200 rpm. Fifty microliters of a freshly prepared AAPH solution in PBS (4 mM) was added with a multi-channel micropipet. […] The progress of reactions was immediately monitored by recording the decrease in absorbance at 273 nm. […] Each experiment was performed in triplicate (three wells), and results were expressed as the mean of CAT value (see below) ±SD. Similarly, to the ORAC assay, the antioxidant value of a sample was calculated through the difference between the area under the curve of this sample and that of the blank (without eutectic extract). The result of this operation gave the net area under the curve (AUC) which was then plotted on a graph as a function of the concentration. Only the linear part of the curve was taken into account to calculate the slope which was then divided by the slope of the Trolox (standard) calculated in the same conditions and analyzed on the same microplate. As such, CAT values were expressed as μmol Trolox equivalent/g eutectic extract.

[3] = Table 2, dried rosemary powder eutectic extracts
[4] = Table 1, fresh rosemary eutectic extracts

SMILES	ORAC method result in words ([1]; pure substance)	CAT value [2, 3] [μmol TE/g]	ORAC value [1, 3] [μmol TE/g]	CAT value [2, 4] [μmol TE/g]	ORAC value [1, 4] [μmol TE/g]
CCCCCCCC/C=C\CCCCCCCC(=O)O [oleic acid]	positive value, although a modest one	–	–	–	–
CCCCn1cc[n+](C)c1.[Cl-] [BmimCl alone, 1-butyl-3-methylimidazolium chloride]	–	0.24	1.1	–	–
CC[N+](CC)(CC)Cc1ccccc1.[Cl-] [BTEAC alone, benzyltriethyl ammonium chloride]	–	0.7	2.8	0.7	2.8
C[N+](C)(C)CCO.[Cl-] [ChCl alone, choline chloride]	–	0	0.3	0	0.3
